Measurements as given in EP3046573B1, “AMYLIN ANALOGUES” (Zealand Pharma A/S, priority 2013, dated 2015).
Where two headings read alike, the source gives them in different places. Numbered stars: 1 amine (or outer) side, 2 acyl side, 3 side chain; on linkers, the order of the positions; unused ones are H or OH. Bridge positions count the residues as written; N and C are the ends. Square brackets hold non-standard residues; d marks the D form. Peptide text beside a SMILES is read from it. * marks the point of attachment. C20 diacid = O=C(O)CCCCCCCCCCCCCCCCCCC(=O)*; γGlu = O=C(O)[C@H](CCC(=O)[*:2])N[*:1]; NMeI = CC[C@H](C)[C@H](NC)C(=O)O; Sar = CNCC(=O)O

Assays:
[1] = molecular target: T1, human calcitonin receptor (hCTR2) (Homo sapiens, UniProt P30988); assay: hCTR2 assay: induction of cAMP (AlphaScreen cAMP Assay kit) in COS7 cells expressing hCTR2; format: cell-based
T1 construct: expressed in transfected cells
T1 sequence (P30988 25-474): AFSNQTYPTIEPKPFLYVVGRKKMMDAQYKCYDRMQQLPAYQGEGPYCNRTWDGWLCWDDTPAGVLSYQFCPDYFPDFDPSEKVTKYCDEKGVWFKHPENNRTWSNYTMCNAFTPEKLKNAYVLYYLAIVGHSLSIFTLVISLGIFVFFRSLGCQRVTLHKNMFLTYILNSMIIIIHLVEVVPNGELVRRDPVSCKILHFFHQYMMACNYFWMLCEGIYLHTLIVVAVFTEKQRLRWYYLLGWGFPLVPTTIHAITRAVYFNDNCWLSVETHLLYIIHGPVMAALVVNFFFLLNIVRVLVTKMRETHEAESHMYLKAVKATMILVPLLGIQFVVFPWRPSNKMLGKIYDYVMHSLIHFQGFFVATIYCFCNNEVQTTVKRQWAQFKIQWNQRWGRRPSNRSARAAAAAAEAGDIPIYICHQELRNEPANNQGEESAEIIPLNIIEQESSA
Outline: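 Functional agonism is measured as cAMP accumulation in a COS7 line stably transfected with hCTR2, lacking endogenous RAMPs. Peptides act for 15 min at 37° C with IBMX present, and curves are fitted with a 4-parameter logistic model.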

[2] = molecular target: T2, human amylin receptor 3 (hAMYR3) consisting of hCTR2 co-expressed with human Receptor Activity Modifying Protein 3 (hRAMP3) (Homo sapiens, UniProt O60896+P30988); assay: hAMYR3 assay: induction of cAMP (AlphaScreen cAMP Assay kit) in COS7 cells expressing hAMYR3; format: cell-based
T2 construct: expressed in transfected cells
T2 sequence (P30988 25-474): T1 sequence (P30988 25-474)
T2 sequence (O60896 24-148 partner): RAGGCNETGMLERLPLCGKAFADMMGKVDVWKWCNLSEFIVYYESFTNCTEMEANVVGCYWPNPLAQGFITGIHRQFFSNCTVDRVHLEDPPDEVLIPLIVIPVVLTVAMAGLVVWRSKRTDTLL
Source text: The cell line COS7, originating from African Green Monkey kidney fibroblast cells, was used for establishment of the stable cell lines described below. The COS7 cellular background was used due to it being RAMP naive, and as such it provides the best available system for testing of the monomeric hCTR and different heterodimeric amylin receptor subtypes functionally generated by introduction of the individual RAMPs.
A cell line expressing the human amylin receptor 3 (hAMYR3) was generated in the COS7 cellular background as stable clones. In brief, hCTR2 (GI:4502547) and hRAMP3 (GI:118572586) were amplified by PCR using primers encoding terminal restriction sites for subcloning. The 5'-end primers additionally encoded a near Kozak consensus sequence to ensure efficient translation. The fidelity of the DNA encoding the receptor was confirmed by DNA sequencing. The PCR products encoding the receptor were subcloned into a proprietary tri-cistronic mammalian expression vector with RAMP3, hCTR2 and neomycin (G418) resistance marker. The mammalian expression vector encoding the receptor was transfected into COS7 cells by a standard liposome transfection method. 48 hours post-transfection, cells were seeded for limited dilution cloning and selected with 1 mg/ml G418 in the culture medium. After 3 weeks, surviving colonies of hAMY3R-expressing cells were picked, propagated and tested in the amylin efficacy assay as described in Example 3 below. The functional generation of the amylin receptor phenotype was verified in the efficacy assay by a left-shifted efficacy response to amylin relative to monomeric calcitonin receptor, and one hAMYR3-expressing clone was chosen for compound profiling.
In vitro activity of test peptides at the hCTR2 and hAMYR3 receptors was assessed by measuring the induction of cAMP following stimulation of the receptor by pramlintide or peptides of the invention using the AlphaScreen® cAMP Assay kit from Perkin-Elmer.
Briefly, COS7 cells expressing hCTR2 (see Example 2, above) were seeded at 30-40,000 cells per well in 96-well microtiter plates coated with 0.01 % poly-L-lysine, and grown for 1 day in culture in 100 µl growth medium [DMEM, 10% FCS, Penicillin (100 IU/ml), Streptomycin (100 µg/ml)]. On the day of analysis, growth medium was removed and the cells were washed once with 200 µl Tyrode buffer [Tyrode's Salts (9.6 g/l), 10 mM HEPES, pH 7.4]. Cells were incubated in 100 µl Tyrode buffer containing increasing concentrations of test peptides, 100 µM IBMX and 0.1% casein for 15 min at 37° C. The reaction was stopped by carefully decanting off the compound/buffer medium and replacing it with lysis/detection buffer (80 µl 0.1 % w/v BSA, 5 mM HEPES, 0.3 % v/v Tween-20 in deionized water). After incubation at room temperature for 10 min., the cAMP content of the resulting cell lysate was estimated according to the AlphaScreen® cAMP Assay manufacturer's instructions. EC50 values and relative efficacy values (in %) compared to reference peptide (Pramlintide) were estimated by computer-aided curve fitting using the 4-parameter logistic (4PL) non-linear model.
The in vitro activity results (expressed as EC50 values) for peptides of the invention and for Pramlintide (reference peptide) are summarized in Table 2, below.

[3] = cAMP induction in COS7 cells expressing hCTR2, average of a minimum of 3 determinations, read-out: hCTR2 EC50

EC50 ([2]; cAMP induction in COS7 cells expressing hAMYR3, average of a minimum of 3 determinations, read-out: hAMY R3 EC50)	SMILES	EC50 [1]	EC50 [2]	EC50 [1, 3]
–	CC[C@H](C)[C@@H](C(=O)N[C@@H](CC(C)C)C(=O)N[C@@H](CO)C(=O)N[C@@H](CO)C(=O)N[C@H](C(=O)N[C@@H](CC(N)=O)C(=O)N[C@H](C(=O)NCC(=O)N[C@@H](CO)C(=O)N[C@@H](CC(N)=O)C(=O)N[C@H](C(=O)N[C@@H](CO)C(N)=O)[C@@H](C)O)C(C)C)[C@@H](C)O)N(C)C(=O)[C@H](C)NC(=O)CN(C)C(=O)[C@H](Cc1ccccc1)NC(=O)[C@H](CC(N)=O)NC(=O)[C@H](CC(N)=O)NC(=O)[C@H](CO)NC(=O)[C@H](CO)NC(=O)[C@H](CCCNC(=N)N)NC(=O)[C@H](Cc1c[nH]cn1)NC(=O)[C@H](CC(C)C)NC(=O)[C@H](Cc1ccccc1)NC(=O)[C@H](CCC(=O)O)NC(=O)[C@H](C)NC(=O)[C@H](CC(C)C)NC(=O)[C@H](CCCNC(=N)N)NC(=O)[C@H](CCC(N)=O)NC(=O)[C@@H](NC(=O)[C@H](C)NC(=O)[C@@H]1CSSC[C@H](NC(=O)[C@H](CCCNC(=N)N)NC(=O)CC[C@H](NC(=O)CCCCCCCCCCCCCCCCCCC(=O)O)C(=O)O)C(=O)N[C@@H](CC(N)=O)C(=O)N[C@@H]([C@@H](C)O)C(=O)N[C@@H](C)C(=O)N[C@@H]([C@@H](C)O)C(=O)N1)[C@@H](C)O [Compound 116, [19CD]-isoGlu-RC()NTATC()ATQRLAEFLHRSSNNF-Gly(Me)-A-Ile(Me)-LSSTNVGSNTS-NH2] ({C20 diacid-γGlu}-RCNTATCATQRLAEFLHRSSNNF[Sar]A[NMeI]LSSTNVGSNTS-NH2; disulfide 2-7)	0.93 nM	1.6 nM	–
–	CC[C@H](C)[C@@H](C(=O)N[C@@H](CC(C)C)C(=O)N[C@@H](CO)C(=O)N[C@@H](CO)C(=O)N[C@H](C(=O)N[C@@H](CC(N)=O)C(=O)N[C@H](C(=O)NCC(=O)N[C@@H](CO)C(=O)N[C@@H](CC(N)=O)C(=O)N[C@H](C(=O)N[C@H](C(N)=O)[C@@H](C)O)[C@@H](C)O)C(C)C)[C@@H](C)O)N(C)C(=O)[C@H](C)NC(=O)CN(C)C(=O)[C@H](Cc1ccccc1)NC(=O)[C@H](CC(N)=O)NC(=O)[C@H](CC(N)=O)NC(=O)[C@H](CO)NC(=O)[C@H](CO)NC(=O)[C@H](CCCNC(=N)N)NC(=O)[C@H](Cc1c[nH]cn1)NC(=O)[C@H](CC(C)C)NC(=O)[C@H](Cc1ccccc1)NC(=O)[C@H](CCC(=O)O)NC(=O)[C@H](C)NC(=O)[C@H](CC(C)C)NC(=O)[C@H](CCCNC(=N)N)NC(=O)[C@H](CCC(N)=O)NC(=O)[C@@H](NC(=O)[C@H](C)NC(=O)[C@@H]1CSSC[C@H](NC(=O)[C@H](CCCNC(=N)N)NC(=O)CC[C@H](NC(=O)CCCCCCCCCCCCCCCCCCC(=O)O)C(=O)O)C(=O)N[C@@H](CC(N)=O)C(=O)N[C@@H]([C@@H](C)O)C(=O)N[C@@H](C)C(=O)N[C@@H]([C@@H](C)O)C(=O)N1)[C@@H](C)O [Compound 117, [19CD]-isoGlu-RC()NTATC()ATQRLAEFLHRSSNNF-Gly(Me)-A-Ile(Me)-LSSTNVGSNTT-NH2] ({C20 diacid-γGlu}-RCNTATCATQRLAEFLHRSSNNF[Sar]A[NMeI]LSSTNVGSNTT-NH2; disulfide 2-7)	0.47 nM	8.2 nM	–
0.45 nM	CC[C@H](C)[C@@H](C(=O)N[C@@H](CC(C)C)C(=O)N[C@@H](CO)C(=O)N[C@@H](CO)C(=O)N[C@H](C(=O)N[C@@H](CCC(=O)O)C(=O)N[C@H](C(=O)NCC(=O)N[C@@H](CO)C(=O)N[C@@H](CCC(=O)O)C(=O)N[C@H](C(=O)N1CCC[C@H]1C(N)=O)[C@@H](C)O)C(C)C)[C@@H](C)O)N(C)C(=O)[C@H](C)NC(=O)CN(C)C(=O)[C@H](Cc1ccccc1)NC(=O)[C@H](CO)NC(=O)[C@H](CO)NC(=O)[C@H](CO)NC(=O)[C@H](CO)NC(=O)[C@H](CCCNC(=N)N)NC(=O)[C@H](Cc1c[nH]cn1)NC(=O)[C@H](CC(C)C)NC(=O)[C@H](Cc1ccccc1)NC(=O)[C@H](CCC(=O)O)NC(=O)[C@H](C)NC(=O)[C@H](CC(C)C)NC(=O)[C@H](CCCNC(=N)N)NC(=O)[C@H](CCC(N)=O)NC(=O)[C@@H](NC(=O)[C@H](C)NC(=O)[C@@H]1CSSC[C@H](NC(=O)[C@H](CCCNC(=N)N)NC(=O)CC[C@H](NC(=O)CCCCCCCCCCCCCCCCCCC(=O)O)C(=O)O)C(=O)N[C@@H](CCC(=O)O)C(=O)N[C@@H]([C@@H](C)O)C(=O)N[C@@H](C)C(=O)N[C@@H]([C@@H](C)O)C(=O)N1)[C@@H](C)O [Compound 128, [19CD]-isoGlu-RC()ETATC()ATQRLAEFLHRSSSSF-Gly(Me)-A-Ile(Me)-LSSTEVGSETP-NH2] ({C20 diacid-γGlu}-RCETATCATQRLAEFLHRSSSSF[Sar]A[NMeI]LSSTEVGSETP-NH2; disulfide 2-7)	–	–	0.28 nM
–	CC[C@H](C)[C@@H](C(=O)N[C@@H](CC(C)C)C(=O)N[C@@H](CO)C(=O)N[C@@H](CO)C(=O)N[C@H](C(=O)N[C@@H](CCC(=O)O)C(=O)N[C@H](C(=O)NCC(=O)N[C@@H](CO)C(=O)N[C@@H](CCC(=O)O)C(=O)N[C@H](C(=O)N1CCC[C@H]1C(N)=O)[C@@H](C)O)C(C)C)[C@@H](C)O)N(C)C(=O)[C@H](C)NC(=O)CN(C)C(=O)[C@H](Cc1ccccc1)NC(=O)[C@H](CO)NC(=O)[C@H](CO)NC(=O)[C@H](CO)NC(=O)[C@H](CO)NC(=O)[C@H](CCCNC(=N)N)NC(=O)[C@H](Cc1c[nH]cn1)NC(=O)[C@H](CC(C)C)NC(=O)[C@H](Cc1ccccc1)NC(=O)[C@H](CCC(=O)O)NC(=O)[C@H](C)NC(=O)[C@H](CC(C)C)NC(=O)[C@H](CCCNC(=N)N)NC(=O)[C@H](CO)NC(=O)[C@@H](NC(=O)[C@H](C)NC(=O)[C@@H]1CSSC[C@H](NC(=O)[C@H](CCCNC(=N)N)NC(=O)CC[C@H](NC(=O)CCCCCCCCCCCCCCCCCCC(=O)O)C(=O)O)C(=O)N2CCC[C@H]2C(=O)N[C@@H]([C@@H](C)O)C(=O)N[C@@H](C)C(=O)N[C@@H]([C@@H](C)O)C(=O)N1)[C@@H](C)O [Compound 140, [19CD]-isoGlu-RC()PTATC()ATSRLAEFLHRSSSSF-Gly(Me)-A-Ile(Me)-LSSTEVGSETP-NH2] ({C20 diacid-γGlu}-RCPTATCATSRLAEFLHRSSSSF[Sar]A[NMeI]LSSTEVGSETP-NH2; disulfide 2-7)	–	0.18 nM	0.098 nM
